Measurements reported in US20220267231A1, “FERTILIZER CONTAINING A SEED GRIND AND A METHOD OF USING THE FERTILIZER TO ENHANCE PLANT GROWTH” (Innovations for World Nutrition, LLC, priority 2020, published 2022).

Legend:
Format in all cases: in vivo
[1] = system: corn; assay: Early growth of corn in transparent cups, dry weight of seedlings; conditions: for Dry Weight of Roots / Total Dry Weight of Plant + Roots / % Difference from Baseline for Plant + Roots / % Difference from Baseline for Roots Only: corn; for Dry Weight of Roots / Total Dry Weight of Plant + Roots: 24 days after planting, .P buried at planting, .L buried 11 days after planting; for % Difference from Baseline for Plant + Roots / % Difference from Baseline for Roots Only: 24 days, compared to the baseline with the highest total weight
Procedure: Each cup was given 0.2 g urea in 25 mL of solution. Two corn seeds were planted in each cup 1 inch deep and 3 inches apart. The cups holding the soil were transparent plastic and were placed inside opaque cups. The seeds were planted in the soil against the inside surface of the transparent cups and the outer opaque cups protected the roots from light during growth. By removing the inner cups, the roots were viewed and pictures taken without disturbing the plants as they were developing and therefore a view of the early growth of the roots was possible. […] After planting the seeds, the mixtures in Table 12 were buried 1.27 cm (½ inch) deep in the center of each cup. Some of these were buried on the same day as the seed was planted (noted as .P in Table 13), and others were buried 11 days after the seed was planted (noted as .L in Table 13). […] If two seeds sprouted in a cup, the second was immediately removed. One cup for each formulation was tested. The baseline was tested in duplicate. Twenty-four days after planting the corn, the plants with roots were gently removed from the cups, rinsed, dried, and weighed. The % differences shown in Table 13 are compared to the baseline with the highest weight of total weight for the plant and roots.

[2] = system: cotton; assay: Early growth of cotton in transparent cups, dry weight of plants and roots; conditions: cotton cup test
Procedure: Each cup was given 0.2 g urea in 25 mL of solution. […] The cups holding the soil were transparent plastic and were placed inside opaque cups. The seeds were planted in the soil against the inside surface of the transparent cups and the outer opaque cups protected the roots from light during growth. By removing the inner cups, the roots were viewed and pictures taken without disturbing the plants as they were developing and therefore a view of the early growth of the roots was possible. […] If two seeds sprouted in a cup, the second was immediately removed.

[3] = system: wheat; assay: Early growth of wheat in transparent cups, dry weight of seedlings; conditions: for Dry Weight of Roots Only / Dry Weight of Total Plant + Roots: 28 days after planting, .P buried at planting, .L buried 11 days after planting; for % Difference for Plant + Roots / % Difference for Roots Only: 28 days, compared to the baseline with the highest total weight
Procedure: Each cup was given 0.2 g urea in 25 mL of solution. Four wheat seeds were planted in each cup 1 inch deep and 3 inches apart. The cups holding the soil were transparent plastic and were placed inside opaque cups. The seeds were planted in the soil against the inside surface of the transparent cups and the outer opaque cups protected the roots from light during growth. By removing the inner cups, the roots were viewed and pictures taken without disturbing the plants as they were developing and therefore a view of the early growth of the roots was possible. […] After planting the seeds, the mixtures in Table 12 were buried 1.27 cm (½ inch) deep in the center of each cup. Some of these were buried on the same day as the seeds were planted (noted as .P in Table 14), and others were buried 11 days after the seed was planted (noted as .L in Table 14). If more than two seeds sprouted in a cup, the seedlings were removed to allow only two to remain. One of each formulation was tested. The baseline was tested in duplicate. Twenty-eight days after planting the wheat, the plants with roots were gently removed from the cups, rinsed, dried, and weighed.

O=C([O-])O.[K+] [KBC, potassium bicarbonate]
Benefit to early growth of corn (in words) ([1]; corn cup test): did not provide a benefit
Early growth of cotton plants and roots (in words) [2]: produced more benefit with early growth of cotton than sodium bicarbonate

O=C([O-])O.[K+] [A.P, potassium bicarbonate]
Dry Weight of Roots [1]: 0.2313 g
Total Dry Weight of Plant + Roots [1]: 0.5292 g
Dry Weight of Roots ([1]; listed as A.L): 0.4121 g
Total Dry Weight of Plant + Roots ([1]; listed as A.L): 0.7818 g
% Difference from Baseline for Plant + Roots [1]: −20%
% Difference from Baseline for Roots Only [1]: −29%
% Difference from Baseline for Plant + Roots ([1]; listed as A.L): 18%
% Difference from Baseline for Roots Only ([1]; listed as A.L): 26%
Dry Weight of Roots Only [3]: 0.0669 g
Dry Weight of Total Plant + Roots [3]: 0.2337 g
Dry Weight of Roots Only ([3]; listed as A.L): 0.1166 g
Dry Weight of Total Plant + Roots ([3]; listed as A.L): 0.2670 g
% Difference for Plant + Roots [3]: −8%
% Difference for Roots Only [3]: −46%
% Difference for Plant + Roots ([3]; listed as A.L): 5%
% Difference for Roots Only ([3]; listed as A.L): −6%

O=C([O-])O.[K+] [H.P, potassium bicarbonate]
Dry Weight of Roots [1]: 0.2744 g
Total Dry Weight of Plant + Roots [1]: 0.5252 g
Dry Weight of Roots ([1]; listed as H.L): 0.2538 g
Total Dry Weight of Plant + Roots ([1]; listed as H.L): 0.5597 g
% Difference from Baseline for Plant + Roots [1]: −20%
% Difference from Baseline for Roots Only [1]: −16%
% Difference from Baseline for Plant + Roots ([1]; listed as H.L): −15%
% Difference from Baseline for Roots Only ([1]; listed as H.L): −22%
Dry Weight of Roots Only [3]: 0.1334 g
Dry Weight of Total Plant + Roots [3]: 0.3030 g
Dry Weight of Roots Only ([3]; listed as H.L): 0.1286 g
Dry Weight of Total Plant + Roots ([3]; listed as H.L): 0.2881 g
% Difference for Plant + Roots [3]: 19%
% Difference for Roots Only [3]: 7%
% Difference for Plant + Roots ([3]; listed as H.L): 13%
% Difference for Roots Only ([3]; listed as H.L): 3%
